Measured values from patent publication EP0024348A1, “Substituted 6-Phenethyl-and phenylethenyl-3,4,5,6-tetrahydro-4-hydroxytetraydropyran-2-ones in the4-R trans stereoisomeric forms and the corresponding dihydroxy acids, process for preparing and pharmaceutical composition comprising them” (Merck & Co., Inc., priority 1979, dated 1981).
Counter-ions that a name gives are not always drawn.

Biological target: T1, 3-hydroxy-3-methylglutaryl coenzyme A reductase (Rattus norvegicus, UniProt P51639)
T1 sequence (P51639 1-887): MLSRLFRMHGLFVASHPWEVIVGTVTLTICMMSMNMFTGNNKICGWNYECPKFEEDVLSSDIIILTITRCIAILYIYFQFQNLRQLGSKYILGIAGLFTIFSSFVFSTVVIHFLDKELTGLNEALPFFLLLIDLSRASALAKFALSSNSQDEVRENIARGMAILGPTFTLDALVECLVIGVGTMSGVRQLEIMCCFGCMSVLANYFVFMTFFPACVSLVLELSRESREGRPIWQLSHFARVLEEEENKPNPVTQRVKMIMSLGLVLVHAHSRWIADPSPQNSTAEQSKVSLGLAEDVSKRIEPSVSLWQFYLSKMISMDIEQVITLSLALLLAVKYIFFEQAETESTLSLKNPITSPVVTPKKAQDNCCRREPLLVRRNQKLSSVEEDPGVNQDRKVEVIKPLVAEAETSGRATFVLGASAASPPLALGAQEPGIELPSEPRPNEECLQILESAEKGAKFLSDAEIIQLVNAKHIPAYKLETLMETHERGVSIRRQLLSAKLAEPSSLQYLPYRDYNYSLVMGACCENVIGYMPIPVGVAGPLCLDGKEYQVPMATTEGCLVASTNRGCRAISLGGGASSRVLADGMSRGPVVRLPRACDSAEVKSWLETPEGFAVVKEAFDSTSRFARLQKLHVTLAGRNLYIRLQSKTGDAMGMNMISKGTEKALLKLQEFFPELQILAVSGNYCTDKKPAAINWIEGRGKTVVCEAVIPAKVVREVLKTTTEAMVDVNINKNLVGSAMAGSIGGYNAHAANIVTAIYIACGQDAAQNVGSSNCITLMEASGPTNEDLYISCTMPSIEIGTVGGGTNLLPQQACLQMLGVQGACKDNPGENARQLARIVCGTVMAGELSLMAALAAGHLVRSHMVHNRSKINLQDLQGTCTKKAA
Assay: Method A: in vitro enzyme inhibition by the method of Knauss et al.
Format: biochemical
From the text: The inhibitory activity of these compounds for the biosynthesis of cholesterol has been measured by two methods. The experimental method A has been realized in vitro by the method of H. J. Knauss, et al., J. Biol. Chem., 234, 2835 (1959) and the activity was expressed as the molar concentration IC50(M) necessary for the inhibition of 50% of the enzymatic activity. The experimental method B was the method of A. A. Kandutsch, et al., J. Biol. Chem., 248, 8403 (1973) for measuring the quantity of ^14C-cholesterol biosynthesis from acetic acid-^14C in mouse L cells. The activity is expressed for inhibition of 50% of the biosynthesis of cholesterol.

Molecule `O=C1C[C@H](O)C[C@@H](CCc2c(Cl)cc(Cl)cc2OCc2ccccc2)O1` (single isomer, unassigned) [Example 14, (+)-Trans-6-[2-(2,4-dichloro-6-phenylmethoxyphenyl)ethyl]-3,4,5,6-tetrahydro-4-hydroxy-2H-pyran-2-one] has an IC50 (test by method A) of 68 nM.

For `O=C(O)C[C@H](O)C[C@H](O)/C=C/c1c(Cl)cc(Cl)cc1-c1ccc(F)cc1` (single isomer, unassigned) [Example 38, (+)-(E)-(3R*, 5S*)-7-(3,5-dichloro-4'-fluoro[1,1'-biphenyl]-2y1)-3,5-dihydroxy-6-heptenoic acid, ammonium salt], the “potency compared with compactin” value (both tested as the sodium salts of their corresponding hydroxy acid forms) was “greater than that of compactin” and the IC50 (tested as the sodium salts of their corresponding hydroxy acid forms, method not restated) was about 2.8 nM.
